Drawing on ChEMBL document CHEMBL1125766, “Synthesis and antiviral activity of certain guanosine analogues in the thiazolo[4,5-d]pyrimidine ring system” (1991), this text covers Mean survival time and Survivors for 8 compounds.

Where “and” joins values, the source holds several entries; their conditions need not be identical. Identical values can stand only once.

Assay type in all cases: functional
Assay [1] concerns Mus musculus. Description: Compound was tested for mean survival time through 21 days after administration of 200 mg/kg, 24 and 18 hr prior to virus inoculation ( forest virus) in mice.
Assay [2] concerns Mus musculus. Put plainly: Compound was tested for its activity against forest virus infection in mice, activity was determined by measuring the number of survived mice after 200 mg/kg administration.
Assay [3] relates to Mus musculus. Description: Compound was tested for its activity against forest virus infection in mice, activity was determined by measuring the number of survived mice after 100 mg/kg administration.
Assay [4] deals with Mus musculus. Put plainly: Compound was tested for mean survival time through 21 days after administration of 100 mg/kg, 24 and 18 hr prior to virus inoculation ( forest virus) in mice.
Assay [5] has as its system Mus musculus. Description: Compound was tested for mean survival time through 21 days after intraperitoneal administration of 150 mg/kg, 24 hr prior to virus inoculation ( forest virus) in mice.
Assay [6] deals with Mus musculus. Description: Compound was tested for mean survival time through 21 days after intravenous administration of 150 mg/kg, 24 hr prior to virus inoculation ( forest virus) in mice.
For assay [7], the system named is Mus musculus. Put plainly: Compound was tested for mean survival time through 21 days after oral administration of 150 mg/kg, 24 hr prior to virus inoculation ( forest virus) in mice.
In assay [8] the test system is Mus musculus. Put plainly: Compound was tested for mean survival time through 21 days after subcutaneous administration of 150 mg/kg, 24 hr prior to virus inoculation ( forest virus) in mice.
The subject of assay [9] is Mus musculus. Put plainly: Compound was tested for its activity against forest virus infection in mice, activity was determined by measuring the number of survived mice after 150 mg/kg oral administration.
For assay [10], the system named is Mus musculus. Put plainly: Compound was tested for its activity against forest virus infection in mice, activity was determined by measuring the number of survived mice after 150 mg/kg subcutaneous administration.
Assay [11] concerns Mus musculus. Description: Compound was tested for its activity against intraperitoneal administration.
In assay [12] the test system is Mus musculus. Description: Compound was tested for its activity against forest virus infection in mice, activity was determined by measuring the number of survived mice after 150 mg/kg intravenous administration.
For assay [13], the system named is Mus musculus. Description: Compound was tested for mean survival time through 21 days after administration of 25 mg/kg, 24 and 18 hr prior to virus inoculation ( forest virus) in mice.
The subject of assay [14] is Mus musculus. Put plainly: Compound was tested for its activity against forest virus infection in mice, activity was determined by measuring the number of survived mice after 25 mg/kg administration.
In assay [15] the test system is Mus musculus. Description: Compound was tested for its activity against forest virus infection in mice, activity was determined by measuring the number of survived mice after 50 mg/kg administration.
Assay [16] has as its system Mus musculus. Description: Compound was tested for its activity against forest virus infection in mice, activity was determined by measuring the number of survived mice after 100 mg/kg administration.

Turning to `Nc1nc(O)c2sc(=O)n([C@H]3C[C@H](O)[C@@H](CO)O3)c2n1`, the Mean survival time is 7 days in the assay on Mus musculus [1] and 6.8 days in the assay on Mus musculus [4]. For the same compound, the Survivors in the assay on Mus musculus [2] is 83%; in the assay with Mus musculus [3], 50%.
With `CC(=O)OC[C@H]1O[C@@H](n2c(=O)sc3c(O)nc(N)nc32)[C@H](OC(C)=O)[C@@H]1OC(C)=O`, the Mean survival time came to 8 days with Mus musculus [5], 7.9 days in the assay on Mus musculus [6], 6.6 days with Mus musculus [7] and 7 days with Mus musculus [8]. The Survivors is reported as 17% in the assay on Mus musculus [9], 82% in the assay on Mus musculus [10], 92% in the assay with Mus musculus [11] and 42% in the assay with Mus musculus [12].
As for `Nc1nc(O)c2sc(=O)n(C3O[C@H](COS(N)(=O)=O)[C@@H](O)[C@H]3O)c2n1` (stereo not given in full), the figures for the Mean survival time in the assay on Mus musculus [1] and in the assay with Mus musculus [4] were 8.2 days and 8 days, respectively. Moreover, the Survivors with Mus musculus [2] amounted to 8%; in the assay on Mus musculus [3], 17%.
On to `Nc1nc(O)c2sc(=O)n(C3O[C@H](COP(=O)(O)O)[C@@H](O)[C@H]3O)c2n1` (stereo not given in full), for which the Mean survival time in the assay on Mus musculus [13] was 8.1 days and 7.1 days; with Mus musculus [4] it was 6.5 days. Also, the Survivors with Mus musculus [14] came to 25%; with Mus musculus [15], 50%; in the assay on Mus musculus [16], 67%.
Turning to `C[C@H]1OC(n2c(=O)sc3c(O)nc(N)nc32)[C@H](O)[C@@H]1O` (stereo not given in full), the Mean survival time with Mus musculus [1] was 8.4 days; in the assay on Mus musculus [4], 8 days. Besides, the Survivors is given as 0% in the assay on Mus musculus [2] and 8% with Mus musculus [3].
In the case of `Nc1nc(O)c2sc(=O)n([C@@H]3O[C@@H]4COP(=O)(O)O[C@H]4[C@H]3O)c2n1`, the Mean survival time with Mus musculus [13] was 7.1 days and 7.3 days; with Mus musculus [4], 7 days. Also, the figures for the Survivors in the assay on Mus musculus [14], in the assay with Mus musculus [15] and in the assay with Mus musculus [16] were 42%, 17% and 50%, respectively.
For the compound `Nc1nc(=O)c2sc(=O)n([C@@H]3O[C@H](CO)[C@@H](O)[C@H]3O)c2[nH]1` [ISATORIBINE], the Mean survival time is greater than 21 days in the assay on Mus musculus [1]; 8.8 days and 7.2 days in the assay with Mus musculus [13]; 7 days in the assay on Mus musculus [5]; 8 days in the assay with Mus musculus [6]; 7.1 days in the assay with Mus musculus [7]; greater than 21 days in the assay on Mus musculus [8]. Also, in the assay with Mus musculus [4] (100 mg/kg), the Mean survival time was 6.5 days and 10 days. For the same compound, the Survivors in the assay on Mus musculus [9] was found to be 25%; with Mus musculus [10], 100%; in the assay with Mus musculus [2] it was 100%; in the assay with Mus musculus [14], 25%; in the assay with Mus musculus [15], 25%; in the assay on Mus musculus [16] it was 50%. Also, the values for the Survivors in the assay with Mus musculus [3], in the assay with Mus musculus [11] and in the assay with Mus musculus [12] were 92%, 91% and 73%, respectively.
`Nc1nc(O)c2sc(=O)n(C(CO)OC(CO)CO)c2n1` (stereo not given): the values for the Mean survival time in the assay on Mus musculus [1] and in the assay on Mus musculus [4] were 7.8 days and 7 days, respectively. Also, the results for the Survivors in the assay on Mus musculus [2] and in the assay on Mus musculus [3] were 0% and 8%, respectively.
